Data taken from US9957264B2 (Merck Sharp & Dohme Corp., priority 2013, dated 2018).

Assays:
[1] = target: JAK1 (recombinant purified GST-tagged catalytic domain) (Homo sapiens (Human), UniProt P23458); assay: Jak Biochemical HTRF Assay (JAK1); details: [ATP] 31.8 μM
Method in brief: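 Under a 120 min room-temperature, ATP-initiated reaction, peptide phosphorylation was detected by Eu-pY20/streptavidin-Dylight 650 HTRF after EDTA stop. IC50 values derive from percent inhibition curves.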

[2] = target: JAK2 (recombinant purified GST-tagged catalytic domain) (Homo sapiens (Human), UniProt O60674); assay: Jak Biochemical HTRF Assay (JAK2); details: [ATP] 8.5 μM
JAK2 (recombinant purified GST-tagged catalytic domain), sequence (O60674 849-1124): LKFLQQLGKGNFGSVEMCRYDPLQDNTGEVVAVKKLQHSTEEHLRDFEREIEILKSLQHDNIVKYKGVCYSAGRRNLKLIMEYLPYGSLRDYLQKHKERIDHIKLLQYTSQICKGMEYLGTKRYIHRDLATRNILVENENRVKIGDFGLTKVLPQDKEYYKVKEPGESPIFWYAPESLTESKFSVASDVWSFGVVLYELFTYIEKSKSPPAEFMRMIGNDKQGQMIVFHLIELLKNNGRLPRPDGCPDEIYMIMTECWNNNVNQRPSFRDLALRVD

JAK1 (recombinant purified GST-tagged catalytic domain), sequence (P23458 875-1153): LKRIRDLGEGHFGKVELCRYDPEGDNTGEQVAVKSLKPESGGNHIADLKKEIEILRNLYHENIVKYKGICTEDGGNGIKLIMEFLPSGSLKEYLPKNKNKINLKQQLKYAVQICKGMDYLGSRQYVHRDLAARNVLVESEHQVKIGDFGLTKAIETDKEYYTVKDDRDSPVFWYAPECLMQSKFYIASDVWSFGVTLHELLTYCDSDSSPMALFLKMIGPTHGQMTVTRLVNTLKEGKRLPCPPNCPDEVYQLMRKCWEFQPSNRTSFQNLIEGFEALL

## CN(C)S(=O)(=O)c1ccc(Nc2nn(C3(CC#N)CCN(C(=O)C4CCOCC4)CC3)c3cc[nH]c(=O)c23)cc1 [Example 9-20, 4-({1-[4-(cyanomethyl)-1-(tetrahydro-2H-pyran-4-ylcarbonyl)piperidin-4-yl]-4-oxo-4,5-dihydro-1H-pyrazolo[4,3-c]pyridin-3-yl}amino)-N,N-dimethylbenzenesulfonamide]
[1]
  IC50: 0.31 nM
[2]
  IC50: 2.48 nM

## CN(C)S(=O)(=O)c1ccc(Nc2nn(C3(CC#N)CCN(C(=O)CCC(F)(F)F)CC3)c3cc[nH]c(=O)c23)cc1 [Example 9-21, 4-({1-[4-(cyanomethyl)-1-(4,4,4-trifluorobutanoyl)piperidin-4-yl]-4-oxo-4,5-dihydro-1H-pyrazolo[4,3-c]pyridin-3-yl}amino)-N,N-dimethylbenzenesulfonamide]
[1]
  IC50: 0.08 nM
[2]
  IC50: 0.33 nM

## CN(C)S(=O)(=O)c1ccc(Nc2nn(C3(CC#N)CCN(C(=O)CCC#N)CC3)c3cc[nH]c(=O)c23)cc1 [Example 9-22, 4-({1-[4-(cyanomethyl)-1-(3-cyanopropanoyl)piperidin-4-yl]-4-oxo-4,5-dihydro-1H-pyrazolo[4,3-c]pyridin-3-yl}amino)-N,N-dimethylbenzenesulfonamide]
[1]
  IC50: 0.09 nM
[2]
  IC50: 0.21 nM

## CN(C)S(=O)(=O)c1ccc(Nc2nn(C3(CC#N)CCN(C(=O)CC(C)(C)C)CC3)c3cc[nH]c(=O)c23)cc1 [Example 9-23, 4-({1-[4-(cyanomethyl)-1-(3,3-dimethylbutanoyl)piperidin-4-yl]-4-oxo-4,5-dihydro-1H-pyrazolo[4,3-c]pyridin-3-yl}amino)-N,N-dimethylbenzenesulfonamide]
[1]
  IC50: 0.14 nM
[2]
  IC50: 1.32 nM

## CSC(C)C(=O)N1CCC(CC#N)(n2nc(Nc3ccc(S(=O)(=O)N(C)C)cc3)c3c(=O)[nH]ccc32)CC1 (stereo not drawn) [Example 9-24, 4-((1-(4-(cyanomethyl)-1-(2-(methylthio)propanoyl)piperidin-4-yl)-4-oxo-4,5-dihydro-1H-pyrazolo[4,3-c]pyridin-3-yl)amino)-N,N-dimethylbenzenesulfonamide]
[1]
  IC50: 0.14 nM
[2]
  IC50: 0.36 nM

## CN(C)S(=O)(=O)c1ccc(Nc2nn(C3(CC#N)CCN(C(=O)CC#N)CC3)c3cc[nH]c(=O)c23)cc1 [Example 9-25, 4-((1-(1-(2-cyanoacetyl)-4-(cyanomethyl)piperidin-4-yl)-4-oxo-4,5-dihydro-1H-pyrazolo[4,3-c]pyridin-3-yl)amino)-N,N-dimethylbenzenesulfonamide]
[1]
  IC50: 0.1 nM
[2]
  IC50: 0.16 nM

## CN(C)S(=O)(=O)c1ccc(Nc2nn(C3(CC#N)CCN(C(=O)Oc4ccccc4)CC3)c3cc[nH]c(=O)c23)cc1 [Example 10-2, phenyl 4-(cyanomethyl)-4-(3-((4-(N,N-dimethylsulfamoyl)phenyl)amino)-4-oxo-4,5-dihydro-1H-pyrazolo[4,3-c]pyridin-1-yl)piperidine-1-carboxylate]
[1]
  IC50: 0.19 nM
[2]
  IC50: 0.86 nM

## CN(C)S(=O)(=O)c1ccc(Nc2nn(C3(CC#N)CCN(C(=O)Oc4ccc(F)cc4)CC3)c3cc[nH]c(=O)c23)cc1 [Example 10-3, 4-fluorophenyl 4-(cyanomethyl)-4-(3-((4-(N,N-dimethylsulfamoyl)phenyl)amino)-4-oxo-4,5-dihydro-1H-pyrazolo[4,3-c]pyridin-1-yl)piperidine-1-carboxylate]
[1]
  IC50: 0.27 nM
[2]
  IC50: 0.97 nM

## CN(C)S(=O)(=O)c1ccc(Nc2nn(C3(CC#N)CCN(C(=O)OCC(C)(C)C)CC3)c3cc[nH]c(=O)c23)cc1 [Example 10-4, neopentyl 4-(cyanomethyl)-4-(3-((4-(N,N-dimethylsulfamoyl)phenyl)amino)-4-oxo-4,5-dihydro-1H-pyrazolo[4,3-c]pyridin-1-yl)piperidine-1-carboxylate]
[1]
  IC50: 0.45 nM
[2]
  IC50: 3.08 nM

## CCOC(=O)N1CCC(CC#N)(n2nc(Nc3ccc(S(=O)(=O)N(C)C)cc3)c3c(=O)[nH]ccc32)CC1 [Example 10-5, ethyl 4-(cyanomethyl)-4-(3-((4-(N,N-dimethylsulfamoyl)phenyl)amino)-4-oxo-4,5-dihydro-1H-pyrazolo[4,3-c]pyridin-1-yl)piperidine-1-carboxylate]
[1]
  IC50: 0.12 nM
[2]
  IC50: 0.29 nM

## CC(C)OC(=O)N1CCC(CC#N)(n2nc(Nc3ccc(S(=O)(=O)N(C)C)cc3)c3c(=O)[nH]ccc32)CC1 [Example 10-6, isopropyl 4-(cyanomethyl)-4-(3-((4-(N,N-dimethylsulfamoyl)phenyl)amino)-4-oxo-4,5-dihydro-1H-pyrazolo[4,3-c]pyridin-1-yl)piperidine-1-carboxylate]
[1]
  IC50: 0.12 nM
[2]
  IC50: 0.27 nM

## CSCCOC(=O)N1CCC(CC#N)(n2nc(Nc3ccc(S(=O)(=O)N(C)C)cc3)c3c(=O)[nH]ccc32)CC1 [Example 11-3, 2-(methylthio)ethyl 4-(cyanomethyl)-4-(3-((4-(N,N-dimethylsulfamoyl)phenyl)amino)-4-oxo-4,5-dihydro-1H-pyrazolo[4,3-c]pyridin-1-yl)piperidine-1-carboxylate]
[1]
  IC50: 0.31 nM
[2]
  IC50: 1.09 nM

## CN(C)S(=O)(=O)c1ccc(Nc2nn(C3(CC#N)CCN(C(=O)OC4CCSCC4)CC3)c3cc[nH]c(=O)c23)cc1 [Example 11-4, tetrahydro-2H-thiopyran-4-yl 4-(cyanomethyl)-4-(3-((4-(N,N-dimethylsulfamoyl)phenyl)amino)-4-oxo-4,5-dihydro-1H-pyrazolo[4,3-c]pyridin-1-yl)piperidine-1-carboxylate]
[1]
  IC50: 0.27 nM
[2]
  IC50: 1.45 nM

## COCC(C)OC(=O)N1CCC(CC#N)(n2nc(Nc3ccc(S(=O)(=O)N(C)C)cc3)c3c(=O)[nH]ccc32)CC1 (stereo not drawn) [Example 11-5, 1-methoxypropan-2-yl 4-(cyanomethyl)-4-(3-((4-(N,N-dimethylsulfamoyl)phenyl)amino)-4-oxo-4,5-dihydro-1H-pyrazolo[4,3-c]pyridin-1-yl)piperidine-1-carboxylate]
[1]
  IC50: 0.27 nM
[2]
  IC50: 0.61 nM

## CN(C)S(=O)(=O)c1ccc(Nc2nn(C3(CC#N)CCN(C(=O)O[C@@H]4CCOC4)CC3)c3cc[nH]c(=O)c23)cc1 [Example 11-6, (R)-tetrahydrofuran-3-yl 4-(cyanomethyl)-4-(3-((4-(N,N-dimethylsulfamoyl)phenyl)amino)-4-oxo-4,5-dihydro-1H-pyrazolo[4,3-c]pyridin-1-yl)piperidine-1-carboxylate]
[1]
  IC50: 0.12 nM
[2]
  IC50: 0.47 nM

## CC(OC(=O)N1CCC(CC#N)(n2nc(Nc3ccc(S(=O)(=O)N(C)C)cc3)c3c(=O)[nH]ccc32)CC1)c1ccccn1 (stereo not drawn) [Example 11-9, 1-(pyridin-2-yl)ethyl 4-(cyanomethyl)-4-(3-((4-(N,N-dimethylsulfamoyl)phenyl)amino)-4-oxo-4,5-dihydro-1H-pyrazolo[4,3-c]pyridin-1-yl)piperidine-1-carboxylate]
[1]
  IC50: 0.41 nM
[2]
  IC50: 1.37 nM

## CC(C#N)OC(=O)N1CCC(CC#N)(n2nc(Nc3ccc(S(=O)(=O)N(C)C)cc3)c3c(=O)[nH]ccc32)CC1 (stereo not drawn) [Example 11-10, 1-cyanoethyl 4-(cyanomethyl)-4-(3-((4-(N,N-dimethylsulfamoyl)phenyl)amino)-4-oxo-4,5-dihydro-1H-pyrazolo[4,3-c]pyridin-1-yl)piperidine-1-carboxylate]
[1]
  IC50: 0.06 nM
[2]
  IC50: 0.1 nM

## CN(C)S(=O)(=O)c1ccc(Nc2nn(C3(CC#N)CCN(C(=O)O[C@H]4CCOC4)CC3)c3cc[nH]c(=O)c23)cc1 [Example 11-11, (S)-tetrahydrofuran-3-yl 4-(cyanomethyl)-4-(3-((4-(N,N-dimethylsulfamoyl)phenyl)amino)-4-oxo-4,5-dihydro-1H-pyrazolo[4,3-c]pyridin-1-yl)piperidine-1-carboxylate]
[1]
  IC50: 0.16 nM
[2]
  IC50: 0.91 nM

## CN(C)S(=O)(=O)c1ccc(Nc2nn(C3(CC#N)CCN(C(=O)OCC(F)(F)F)CC3)c3cc[nH]c(=O)c23)cc1 [Example 12, 2,2,2-trifluoroethyl 4-(cyanomethyl)-4-(3-((4-(N,N-dimethylsulfamoyl)phenyl)amino)-4-oxo-4,5-dihydro-1H-pyrazolo[4,3-c]pyridin-1-yl)piperidine-1-carboxylate]
[1]
  IC50: 0.11 nM
[2]
  IC50: 0.24 nM

## CC(C)OC(=O)N1CCC(CC#N)(n2nc(Nc3ccnc(F)c3)c3c(=O)[nH]ccc32)CC1 [Example 13-1, isopropyl-4-(cyanomethyl)-4-(3-(2-fluoropyridin-4-ylamino)-4-oxo-4,5-dihydropyrazolo[4,3-c]pyridin-1-yl)piperidine-1-carboxylate]
[1]
  IC50: 0.22 nM
[2]
  IC50: 3.82 nM

## COC(=O)N1CCC(CC#N)(n2nc(Nc3ccnc(F)c3)c3c(=O)[nH]ccc32)CC1 [Example 13-2, methyl 4-(cyanomethyl)-4-(3-(2-fluoropyridin-4-ylamino)-4-oxo-4,5-dihydropyrazolo[4,3-c]pyridin-1-yl)piperidine-1-carboxylate]
[1]
  IC50: 0.64 nM
[2]
  IC50: 5.54 nM

## CN(C)S(=O)(=O)c1ccc(Nc2nn(C3(CC#N)CCN(S(=O)(=O)C4CC4)CC3)c3cc[nH]c(=O)c23)cc1 [Example 14-2, 4-((1-(4-(cyanomethyl)-1-(cyclopropylsulfonyl)piperidin-4-yl)-4-oxo-4,5-dihydro-1H-pyrazolo[4,3-c]pyridin-3-yl)amino)-N,N-dimethylbenzenesulfonamide]
[1]
  IC50: 0.06 nM
[2]
  IC50: 0.12 nM

## CS(=O)(=O)c1ccc(Nc2nn(C3(CC#N)CCN(c4cc(C(F)(F)F)ccn4)CC3)c3cc[nH]c(=O)c23)cc1 [Example 15-1, 2-(4-(3-((4-(methylsulfonyl)phenyl)amino)-4-oxo-4,5-dihydro-1H-pyrazolo[4,3-c]pyridin-1-yl)-1-(4-(trifluoromethyl)pyridin-2-yl)piperidin-4-yl)acetonitrile]
[1]
  IC50: 0.16 nM
[2]
  IC50: 0.37 nM

## CS(=O)(=O)c1ccc(Nc2nn(C3(CC#N)CCN(c4ccc(C#N)cn4)CC3)c3cc[nH]c(=O)c23)cc1 [Example 15-2, 6-(4-(cyanomethyl)-4-(3-((4(methylsulfonyl)phenyl)amino)-4-oxo-4,5-dihydro-1H-pyrazolo[4,3-c]pyridin-1-yl)piperidin-1-yl)nicotinonitrile]
[1]
  IC50: 0.04 nM
[2]
  IC50: 0.04 nM
